Measured values as given in US20160030416A1, “METHODS OF TREATING B2-BRADYKININ RECEPTOR MEDIATED ANGIOEDEMA” (SHIRE HUMAN GENETIC THERAPIES, INC., priority 2013, published 2016).
“And” between values parts separate entries of the source, which are not always exact repeats. Equal values may be shown once.

How the values were obtained:
[1] = biological target: T1, μ (h) (MOP) (agonist site) (Homo sapiens, UniProt P35372); assay: Off-target receptor binding: μ (MOP)
T1 construct: expressed in transfected cells; host or cells: CHO or HEK 293 (not assigned per receptor)
T1 sequence (P35372 whole entry): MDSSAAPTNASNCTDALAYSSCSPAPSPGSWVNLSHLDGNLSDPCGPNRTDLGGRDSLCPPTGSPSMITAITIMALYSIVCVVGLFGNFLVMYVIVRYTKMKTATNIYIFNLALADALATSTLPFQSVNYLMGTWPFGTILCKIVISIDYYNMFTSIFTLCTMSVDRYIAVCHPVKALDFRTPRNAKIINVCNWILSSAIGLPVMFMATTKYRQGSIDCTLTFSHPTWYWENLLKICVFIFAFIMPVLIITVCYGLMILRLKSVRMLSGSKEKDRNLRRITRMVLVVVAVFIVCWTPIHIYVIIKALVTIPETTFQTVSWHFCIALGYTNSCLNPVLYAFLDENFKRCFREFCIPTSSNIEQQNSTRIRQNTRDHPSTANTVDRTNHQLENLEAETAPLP
Experimental: (§1) To determine the affinity to the B2-bradykinin receptor, CFMQ was compared to a diverse set of receptors and reference agents in an in vitro assay using cells from rat heart, urinary bladder, cerebral cortex, as well as human recombinant cells (CHO and HEK 293) and other cell lines. Each assay included a ligand at a specific concentration (concentration ranging from 0.007-10 nM), in addition to a non-specific ligand (concentration ranging from […]) for incubation periods ranging from 15 minutes to 6 hours at 4°-37° C. The specific binding to the receptors was defined as the difference between the total binding and the nonspecific binding, determined in the presence of an excess of unlabeled CFMQ. The concentration causing a half-maximal inhibition of control specific binding (IC50 values) and inhibition constants (Ki) were determined, and each reference compound was within the accepted limits of the historic average (±0.5 log units).

[2] = In vitro microsomal stability, rat; type: in vitro ADME; settings: Rat (Wistar)
Experimental: (§2) In vitro metabolic stability studies were performed to determine hepatic stability in vivo. CFMQ was incubated in liver microsomal preparations from mouse, rat, dog, mini-pig, and humans, as well as an additional study with monkey and human. CFMQ was incubated with human and animal liver microsomes at 0.3 mg/mL at 37° C. for 30 or 60 minutes. Additional reference compounds were incubated as controls. Following incubation, samples were analyzed by HPLC-MS/MS.

plasma extravasation [3] = assay: Plasma extravasation (Evans blue in bladder), oral gavage, female WT mice; type: in vivo
Experimental: The efficacy of CFMQ (HGT3711) following orally administration was studied in female WT mice. Eight mice per group received either vehicle or CFMQ (HGT3711) at 1.0, 3.0, 10, or 30 mg/kg by oral gavage. An additional dose group received Firazyr® (icatibant-0.4 mg/kg) as a subcutaneous (SC) injection. Similar to the previous studies, inhibition of EB content in the dried bladder (μg EB per milligram of tissue weight) was utilized as measurement of efficacy.

plasma extravasation [4] = assay: Plasma extravasation (Evans blue in bladder), oral, C1-INH knockout mice; type: in vivo, C1-INH-KO mice
[5] = biological target: T2, human B2-bradykinin receptor (Homo sapiens, UniProt P30411); assay: [3H]bradykinin competition binding assay in HEK 293 cells; parameters: expressed in transfected cells; settings: 2 nM [3H]bradykinin, 90-minute incubation
T2 sequence (P30411 1-391): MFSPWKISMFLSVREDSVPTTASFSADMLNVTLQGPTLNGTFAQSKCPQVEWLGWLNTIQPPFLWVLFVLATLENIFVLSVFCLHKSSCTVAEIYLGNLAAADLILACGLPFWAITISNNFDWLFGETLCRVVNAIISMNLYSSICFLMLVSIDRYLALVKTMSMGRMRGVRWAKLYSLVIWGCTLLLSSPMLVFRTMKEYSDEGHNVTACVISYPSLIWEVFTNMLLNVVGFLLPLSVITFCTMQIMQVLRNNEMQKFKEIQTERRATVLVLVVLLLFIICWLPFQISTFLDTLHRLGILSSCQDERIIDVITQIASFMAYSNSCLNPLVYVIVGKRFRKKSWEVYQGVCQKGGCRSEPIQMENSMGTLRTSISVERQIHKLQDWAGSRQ
Experimental: For determination of non-specific binding 1.25 μL of a 10 mM bradykinin (BK) solution was added to 248.8 μL incubation buffer (containing 2 nM [^3H]BK). […] Appropriate controls were prepared in the same method.
Human embryonic kidney (HEK) 293 cells stably express recombinant human B2-bradykinin receptors (10 pmol/mg protein) and were added to 96-well culture-trays and cultivated for 1-3 days, followed by incubation with 100 μL of each of the incubation buffers containing [^3H]BK. After a 90-minute incubation period and washing (4×PBS (phosphate buffered saline)) supernatants of the cell mixtures were transferred to scintillation vials and assayed for [^3H]BK in a beta-counter. Results of counts per minute (cpm) for non-specific binding were subtracted from the total cpm and were used for curve fit and IC50 calculation.

[6] = In vitro microsomal stability, monkey; type: in vitro ADME; settings: Monkey (Cynomolgus), Male
Experimental: as §2

[7] = Cross-over PK, IV and PO, cynomolgus monkeys; type: in vivo, male cynomolgus monkey
Experimental: A cross-over PK (pharmacokinetic) analysis was conducted in cynomolgus monkey. Two fasted male monkeys in each dose group received a single 1.0 mg/kg dose of CFMQ (HGT3711) by either IV (intravenous) or PO (oral) administration, with a 7-day washout period between each dose. The dose concentration was 1.0 mg/mL with a dose volume of 1.0 mL/kg. Blood samples were collected via the femoral vein at 0.083 (5 min), 0.25 (15 min), 0.5 (30 min), 1, 1.5, 2, 3, 4, 6, 8, 18 and 24 hours post-dose. Plasma concentrations of CFMQ (HGT3711) were determined by LC-MS/MS and concentrations below the limit of quantitation (2.5 ng/mL) were assigned a value of zero for pharmacokinetic analysis. Following oral administration of CFMQ (1 mg/kg), the concentration of CFMQ in plasma was below the limit of quantitation (BLQ=<2.5 ng/ml) at each sampling time point, preventing assessment of pharmacokinetic properties of CFMQ after oral administration in monkeys in this study. Table 11 summarizes the average PK properties for IV and PO dosed groups.

A3 (h) = biological target: T3, A3 (h) (Homo sapiens, UniProt P0DMS8); assay: Off-target receptor binding: A3
T3 construct: expressed in transfected cells; host or cells: CHO or HEK 293 (not assigned per receptor)
T3 sequence (P0DMS8 1-318): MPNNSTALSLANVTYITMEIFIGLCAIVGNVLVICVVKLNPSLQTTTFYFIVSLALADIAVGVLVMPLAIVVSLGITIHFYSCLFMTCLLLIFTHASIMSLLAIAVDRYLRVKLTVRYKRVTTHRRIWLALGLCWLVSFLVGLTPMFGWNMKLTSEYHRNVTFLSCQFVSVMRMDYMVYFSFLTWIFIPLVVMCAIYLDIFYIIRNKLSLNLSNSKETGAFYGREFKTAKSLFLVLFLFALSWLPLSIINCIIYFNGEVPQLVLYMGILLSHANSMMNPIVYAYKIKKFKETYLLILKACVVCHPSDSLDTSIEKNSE
Experimental: as §1

[8] = male, cynomolgus monkey, plasma, IV (1 mg/kg), Mean

IC50 [1]: 6.7 µM
Ki [1]: 2.7 µM
nH [1]: 1.0
inhibition at 10 µM ([1]; CFMQ at 10 μM): 54%
% Remaining [30 minutes] ([2]; Female): 76%
% Remaining [60 minutes] ([2]; Female): 60%
% Remaining [30 minutes] ([2]; Male): 3%
% Remaining [60 minutes] ([2]; Male): 0%
plasma value (plasma extravasation [3]; oral 10.0 mg/kg): 267 nM
IC50 [5]: 0.0033 µM
% Remaining [30 minutes] ([6]; 30 minutes): 32%
% Remaining [60 minutes] ([6]; 60 minutes): 7%
Vz as fold of the total body water (0.69 L/kg) ([7]; IV 1 mg/kg): 4.32 fold
systemic clearance as % of monkey hepatic blood flow (2.62 L/hr/kg) ([7]; IV 1 mg/kg): 57.63%
ACU(0-∞) ([7]; IV (1 mg/kg), Mean): 693.99 μg/L*hr
CLz ([7]; IV (1 mg/kg), Mean, 1 mg/kg): 25.2 ± 6.83 mL/min/kg and 25.2 mL/min/kg
t1/2z ([7]; IV (1 mg/kg), Mean, 1 mg/kg): 1.40 ± 0.24 h and 1.40 h
AUC(0-t) [7, 8]: 679 ng·h/mL
Cmax [7, 8]: 410 ng/mL
Tmax [7, 8]: 0.23 h
MRT inf ([7]; male, cynomolgus monkey, plasma, IV (1 mg/kg), Mean, read-out: MRT(0-∞)): 1.77 h
Cmax ([7]; male, cynomolgus, cynomolgus monkey, plasma, IV (1 mg/kg), Mean): 410 ± 107 ng/mL
Vd ([7]; male, cynomolgus, cynomolgus monkey, plasma, IV (1 mg/kg), Mean, read-out: Vz): 2.98 ± 0.55 L/kg
concentration of CFMQ in plasma ([7]; oral 1 mg/kg, at each sampling time point (below limit of quantitation)): < 2.5 ng/mL
oral bioavailability ([7]; oral 1 mg/kg, monkey): no bioavailability
IC50 (A3 (h)): 7.6 µM
Ki (A3 (h)): 4.5 µM
nH (A3 (h)): 1.4
inhibition at 10 µM (A3 (h); CFMQ at 10 μM): 53%
SMILES: Cc1cc(Cl)c(COc2cccc3c(-n4cc(F)cn4)cc(C)nc23)c(Cn2cccc(C#N)c2=O)n1 [CFMQ, 1-((4-Chloro-3-(((4-(4-fluoro-1H-pyrazol-1-yl)-2-methylquinolin-8-yl)oxy)methyl)-6-methylpyridin-2-yl)methyl)-2-oxo-1,2-dihydropyridine-3-carbonitrile]
inhibition of EB accumulation in the bladder (plasma extravasation [3]; oral 10 mg/kg, female WT mice): ~100%
efficacy compared with 0.4 mg/kg SC Firazyr (plasma extravasation [3]; oral 10.0 mg/kg, female WT mice): equally effective
inhibition of EB accumulation in the bladder (plasma extravasation [3]; oral 30 mg/kg, female WT mice): ~100%
minimally-effective dose (MED) (plasma extravasation [3]; oral gavage, female WT mice): 3.0 mg/kg
efficacy compared with 0.4 mg/kg SC Firazyr (plasma extravasation [4]; oral 3.0 mg/kg): nearly as effective
inhibition of EB accumulation in the bladder (plasma extravasation [4]; oral 10 mg/kg): ~100%
inhibition of EB accumulation in the bladder (plasma extravasation [4]; oral 30 mg/kg): ~100%
